According to PubChem BioAssay (NCI):
Several values for one entry are separate records, joined by “and”; a condition that tells them apart may be missing. Equal entries are not always repeated.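 Interpolation was linear, between the two tested concentrations surrounding the appropriate level; five concentrations were tested over 48 hours in 96-well plates. GI50: concentration for 50% inhibition of growth. The concentration for full growth arrest is given as TGI.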

System: MDA-MB-468 breast
Assay: DTP human tumour cell line panel, 48 h

Structure (SMILES) | GI50 | TGI
O=S(=O)(NCCCNc1nccc(-c2c(-c3ccc(F)cc3)nc3sccn23)n1)c1ccc(F)cc1 | 4.55 µM | > 100 µM
COc1cc(-c2ncn(/C=C\c3nnco3)n2)cc(C(F)(F)F)c1 | 0.518 µM | 3.96 µM
COC(=O)c1cc([N+](=O)[O-])cc([N+](=O)[O-])c1Cl | 1.22 µM | 2.57 µM
CC1SC(c2ccc(Cl)cc2)N(CCc2cccs2)C1=O (stereo not drawn) | 1.47 µM | 3.75 µM
N#CCNC(=O)c1ccc(-c2ccnc(Nc3ccc(N4CCOCC4)cc3)n2)cc1 | 2.69 µM and 2.35 µM | > 10 µM and 11.9 µM
COc1ccc(-c2c3c(N)c4c(nc3nc3c2c(C)nn3-c2ccccc2)CCCC4)cc1 | 2.33 µM | 7.67 µM
C=CC[N+]1(CC)CCN=C1CCCCCCCCCCCCCCCCC (stereo not drawn) | 0.135 µM | 0.538 µM
CC1CCN(CCOc2ccc(CNc3ccc4nc(CCC5CCCCC5)[nH]c4c3)cc2)CC1 | 1.55 µM | 3.25 µM
S=C(NCc1ccc2c(c1)OCO2)N1CCN(c2ncnc3c2oc2ccccc23)CC1 | 0.456 µM | > 100 µM
CC1(C)[C@H](O)[C@H](F)C[C@@]2(C)Oc3ccc(C(=O)Nc4ccc5c(c4)NC(=O)C54CCN(CCCCC#N)CC4)cc3C[C@H]12 | 0.0654 µM and 0.128 µM | 10.7 µM
O=C1/C(=C/c2ccccc2[N+](=O)[O-])COc2ccc(O)cc21 | 1.1 µM | 4.56 µM
COc1cc2c(cc1NC(=O)C(Cl)Cl)-c1ccc(NC(=O)C(Cl)Cl)cc1C2 | 0.28 µM | 0.931 µM
COc1ccc(S(=O)(=O)N2CCNCC2)cc1OC | > 100 µM | > 100 µM
CCN(Cc1ccc(F)cc1)c1ccc(CO)c(C(F)(F)F)c1 | 0.165 µM | 0.499 µM
Cc1ccc(-n2c(-c3cc4c([nH]c5ccccc54)c(-c4cccc(O)c4)n3)n[nH]c2=S)cc1 | 0.28 µM | 1.18 µM
COc1cc(C(=O)/C=C/c2c(C(F)(F)F)nc3ccccn23)cc(OC)c1OC | 2.12 µM | 4.72 µM
COc1ccc(/C=N\Nc2nc(SCC(C)C)nc(-c3ccc(OC)cc3)c2C#N)cc1 | 4.36 µM | 28 µM
O=C(NCCCNc1cc(-c2cn(-c3ccccc3)nc2-c2cccc(O)c2)ccn1)Nc1cccc(C(F)(F)F)c1 | 1.61 µM | 6.15 µM
c1ccc(C2CCCCC2)c(OCCCCCN2CCNCC2)c1 | 1.77 µM | 4.2 µM
NCc1ccc(-c2nc(-c3ccc(Cl)c(O)c3)c(-c3ccncc3)[nH]2)cc1 | > 12.2 µM | > 25 µM
Cn1c(C(=O)c2cccc3ccccc23)nc2ccccc21 | 5.92 µM | > 100 µM
C[C@@H](NC(=O)c1ccc(F)cc1)c1ccc2c(c1)CCN2C(=O)C1CCOCC1 | > 100 µM | > 100 µM
C=CCN(CC=C)C(=O)[C@H](CC)[C@@H]1CC[C@@H](C)[C@@H]([C@H](C)[C@@H](O)[C@@H](C)C(=O)[C@H](CC)C2O[C@]3(C=C[C@@H](O)[C@]4(CC[C@@](C)([C@H]5CC[C@](O)(CC)[C@H](C)O5)O4)O3)[C@H](C)C[C@@H]2C)O1 (stereo partly drawn) | 1.53 µM | 4.84 µM
Clc1ccc([I+]c2ccc(Cl)cc2Cl)c(Cl)c1 | 1.33 µM | 2.81 µM

Structure (SMILES) | GI50 | TGI
COC1=C(OC)C(=O)C(CCCCCCCCCCO)=C(C)C1=O | 1.66 µM | 3.76 µM
Nc1nc2ccccc2c2c1S(=O)(=O)c1ccc(Cl)cc1C2=O | 0.735 µM | 2.15 µM
C=C1C(=O)O[C@H]2[C@H]1CC/C(COC(=O)NCc1c[nH]c3ccc(F)cc13)=C\CC[C@@]1(C)O[C@@H]21 | 1.09 µM | 2.91 µM
CC(=O)N(O)c1ccc(/C=C/c2ccccc2)cc1 | 0.0686 µM | 0.932 µM
O=S(=O)(NCCCNc1cc(-c2cn(-c3ccccc3)nc2-c2cccc(O)c2)ccn1)c1ccc(F)cc1 | 2.55 µM | 6.73 µM
O=C1c2ccccc2C(=O)c2c1cc1c(c2[N+](=O)[O-])OCO1 | 1.64 µM | 4.41 µM
CCn1ccnc1C(=O)/C=C/c1ccc(CC(=O)Nc2ccc(F)cc2)cc1 | 1.99 µM | 4.94 µM
COCCOCCOCCOCCOC(=O)OC[n+]1ccc(NC(=NCCCCCCOc2ccc(Cl)cc2)NC#N)cc1 | 1.42 µM | 9.99 µM
COc1ccc(COc2cc3oc(=O)c4cc(C(C)O)ccc4c3cc2OC)cc1 (stereo not drawn) | 9.2 µM | > 100 µM
O=C(c1cc(Cc2n[nH]c(=O)c3ccccc23)ccc1F)N1CCN(C(=O)C2CC2)CC1 | 8.29 µM and 13.9 µM | > 100 µM
COc1ccc2c(c1)C(=O)c1c-2c(=O)n(CCCN(C)C)c2cc(OC)c(OC)cc12 | 1.43 µM | 9.92 µM
Fc1ccc2nc(-c3nc(-c4ccccc4)n4ccccc34)[nH]c2c1 | 1.49 µM | 4.02 µM
N#Cc1cccc(Nc2ncc(-c3ccccc3)o2)c1 | 5.29 µM | > 25 µM
C=CC(=O)N[C@@H](/C=C/C(=O)OCC)Cc1ccc(-c2cc(Cl)cc(Cl)c2)cc1 | 5.17 µM | 48.1 µM
O=c1[nH]c2ccccc2n1C1CCN(CCCC(c2ccc(F)cc2)c2ccc(F)cc2)CC1 | 1.32 µM and 1.5 µM | 2.83 µM and 4.46 µM
C[C@H]1CN(C2COC2)CCN1c1ccc(Nc2cc(-c3ccnc(N4CCn5c(cc6c5CC(C)(C)C6)C4=O)c3CO)cn(C)c2=O)nc1 | 22.9 µM | 89.4 µM
COc1ccc(C2CC(c3ccc(N(C)C)cc3)=NN2c2ccc(S(N)(=O)=O)cc2)cc1 (stereo not drawn) | 3.28 µM | > 100 µM
COc1ccc(-c2[nH]c3ccccc3c2/C=C(\C#N)S(=O)(=O)c2ccccc2)cc1 |  | 1.93 µM
N#C/C(=C\c1cc2ccc(N3CCC3)cc2oc1=O)C(=O)N(CC(=O)O)CC(=O)O | > 100 µM | > 100 µM
N#Cc1c(NC(=O)c2ccccc2F)sc2c1CCCC2 | 5.65 µM | > 25 µM
Clc1nc(Cl)c2ncn(CCOCCn3cnc4c(Cl)nc(Cl)nc43)c2n1 | 0.179 µM | 0.359 µM
CC(C)N(Cc1ccc(F)cc1)c1ccc(CO)c(Cl)c1 | 0.017 µM | 0.0463 µM
Nc1nc(-c2ccc(Cl)cc2)nc2c1sc(=S)n2-c1ccccc1 | 4.06 µM | 23.2 µM
